Some test systems named below: SN12K1 renal; DMS 273 small cell lung; P388 leukemia; M19-MEL melanoma; HOP-18 NSCLC; MDA-N; SNB-78 CNS; XF 498 CNS; DLD-1 colon; LXFL 529 NSCLC; RXF-631 renal.
Common to all, as to assay: NCI tumour cell line growth inhibition, 48 h

Where “and” joins values, the source holds several entries; their conditions need not be identical. Equal entries are not always repeated.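 Five compound concentrations were applied to cells in 96-well plates for 48 hours; endpoints were derived by simple linear interpolation of the resulting dose-response curve. The concentration for 50% growth inhibition is given as GI50. TGI denotes the concentration required for complete inhibition of growth.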 Bounds are passed on as bounds.

With `COC1/C=C/O[C@@]2(C)Oc3c(C)c(O)c4c(O)c(cc(O)c4c3C2=O)NC(=O)/C(C)=C\C=C\[C@H](C)C(O)[C@@H](C)[C@@H](O)[C@@H](C)[C@H](OC(C)=O)[C@@H]1C` (some centres undefined), the TGI in the assay with SN12K1 renal was 33.5 µM; with DMS 273 small cell lung, 32.7 µM; in the assay with P388 leukemia, 31.2 µM; in the assay on M19-MEL melanoma, 26.1 µM; in the assay on HOP-18 NSCLC it was 38.8 µM; with MDA-N it was 39.9 µM and 27.8 µM. For the same compound, the TGI stood at 95 µM with SNB-78 CNS, 29.3 µM with XF 498 CNS and 30.4 µM with DLD-1 colon. Moreover, the GI50 with MDA-N is 19.2 µM.
With `COc1ccc(-c2cc(C(=O)Nc3cccc(C(F)(F)F)c3)[nH]c(=S)n2)cc1`, the TGI in the assay on DMS 273 small cell lung, in the assay with M19-MEL melanoma, with HOP-18 NSCLC, in the assay with LXFL 529 NSCLC, in the assay with SNB-78 CNS and in the assay on XF 498 CNS was above 100 µM in each case. The TGI in the assay on DLD-1 colon was above 100 µM.
On to `COc1ccc(CNc2cc(OC)cc(OC)c2)cc1`, for which the GI50 is > 100 µM and 42.3 µM in the assay with DMS 273 small cell lung; above 100 µM in the assay with HOP-18 NSCLC; 97.7 µM and 42.6 µM in the assay with DLD-1 colon. Besides, the TGI with DMS 273 small cell lung is above 100 µM; in the assay on M19-MEL melanoma, above 100 µM; in the assay on HOP-18 NSCLC, above 100 µM; with LXFL 529 NSCLC, above 100 µM; in the assay with SNB-78 CNS, 87.7 µM and 86.6 µM; in the assay on XF 498 CNS, above 100 µM. This compound also came in with a TGI in the assay with DLD-1 colon above 100 µM.
With `O=CC1=CCCC2(C1)OCCO2`, the TGI with DMS 273 small cell lung, in the assay with M19-MEL melanoma, in the assay on LXFL 529 NSCLC, with SNB-78 CNS, in the assay with XF 498 CNS and in the assay with DLD-1 colon was above 100 µM in each case. In addition, in the assay with RXF-631 renal, the TGI was above 100 µM.
On to `CC(=O)O[C@]1(C(C)=O)CC[C@H]2[C@@H]3C[C@H](C)C4=CC(=O)C=C[C@]4(C)[C@@]3(F)[C@@H](O)C[C@@]21C`, for which the TGI in the assay with DMS 273 small cell lung, with M19-MEL melanoma, in the assay with SNB-78 CNS, in the assay on XF 498 CNS and with DLD-1 colon was above 100 µM throughout.
`CC(C)(C)c1nc2c(o1)C(=Nc1ccccc1)c1ccccc1C2=O`: the TGI came to 11.3 µM in the assay with DMS 273 small cell lung; 2.32 µM in the assay on M19-MEL melanoma; 20.9 µM with HOP-18 NSCLC; 50.1 µM in the assay with LXFL 529 NSCLC; 43.7 µM in the assay with SNB-78 CNS; 9.66 µM in the assay with XF 498 CNS. Also, the TGI was found to be 38.1 µM in the assay with DLD-1 colon and 51.9 µM in the assay with RXF-631 renal.
For the compound `N=C(N)/N=C(/C=C/c1ccccc1)CC1OC(=O)c2ccccc21` (centres undefined), the TGI in the assay with DMS 273 small cell lung, in the assay on M19-MEL melanoma, with LXFL 529 NSCLC, with XF 498 CNS and in the assay on DLD-1 colon was above 100 µM each time.
Take `CCOC(C)OCC#CCCBr` (centres undefined): the TGI with DMS 273 small cell lung, in the assay on M19-MEL melanoma, in the assay with HOP-18 NSCLC, in the assay on LXFL 529 NSCLC, in the assay with SNB-78 CNS and in the assay with DLD-1 colon was above 100 µM in each case.
Consider `OCC(O)CC[CH2][Sn]([c]1ccccc1)([c]1ccccc1)[c]1ccccc1` (centres undefined), for which the GI50 with DMS 273 small cell lung was 14.3 µM; in the assay on M19-MEL melanoma, 17.1 µM; in the assay on HOP-18 NSCLC it was 24.9 µM; in the assay with LXFL 529 NSCLC, 12.3 µM; with SNB-78 CNS, 19.6 µM; in the assay on XF 498 CNS, 19.5 µM. In addition, the GI50 in the assay on DLD-1 colon was 16.5 µM; in the assay with RXF-631 renal, 13.6 µM. Also, the TGI is 29.6 µM in the assay with DMS 273 small cell lung; 31.1 µM in the assay with M19-MEL melanoma; 39.7 µM in the assay on HOP-18 NSCLC; 24.9 µM in the assay with LXFL 529 NSCLC; 41.3 µM with SNB-78 CNS; 35.9 µM with XF 498 CNS. Besides, the figures for the TGI in the assay on DLD-1 colon and in the assay with RXF-631 renal were 32 µM and 28.7 µM, respectively.
On to `CCOC(=O)C1NCCc2c1[nH]c1ccccc21` (centres undefined), for which the TGI in the assay with MDA-N is above 10 µM.
Consider `COc1nc(OC)c2c(=O)oc(-c3ccccc3)cc2n1`, for which the TGI with DMS 273 small cell lung, with M19-MEL melanoma, in the assay with LXFL 529 NSCLC and in the assay on SNB-78 CNS was above 100 µM in each case.
`Cc1c(Cl)cccc1NC(=O)CC1Sc2ccccc2NC1=O` (centres undefined): the GI50 in the assay on DMS 273 small cell lung was 10.6 µM and 26 µM; with RXF-631 renal, 44.5 µM and 21 µM. Besides, the TGI in the assay on DMS 273 small cell lung was above 100 µM; with M19-MEL melanoma, above 100 µM; with HOP-18 NSCLC, 32.7 µM and 31.5 µM; with MDA-N, 8.28 µM; in the assay with LXFL 529 NSCLC it was above 100 µM; with SNB-78 CNS it was 99 µM and > 100 µM. Besides, the TGI in the assay with XF 498 CNS is 68.9 µM and 50.2 µM; in the assay with DLD-1 colon, above 100 µM; in the assay on RXF-631 renal it was > 100 µM and 57.5 µM.
Take `O=c1cc2n(c(=O)[nH]1)C1OC(C(O)C1O)[C@@H]2CCO` (some centres undefined): the TGI in the assay with DMS 273 small cell lung, in the assay with M19-MEL melanoma, in the assay on LXFL 529 NSCLC, in the assay on SNB-78 CNS and with DLD-1 colon was above 100 µM in each case.
Take `CC1=CC[C@@H]2[C@@H](CC[C@@]2(C)O)C(C)(C)[C@H]1CC[C@@H]1[C@@]2(C)CCC(=O)C(C)(C)O[C@@H]2CC[C@]1(C)O`: the TGI in the assay with MDA-N was 57 µM.
Regarding `CC(NC(=O)c1ccccc1)C(=O)N(Cc1ccccc1)Cc1ccccc1` (centres undefined), the TGI in the assay with DMS 273 small cell lung is 47.1 µM; with M19-MEL melanoma, 67.7 µM; in the assay with LXFL 529 NSCLC, 53.4 µM; in the assay with SNB-78 CNS, 96.6 µM; in the assay on DLD-1 colon, above 100 µM.
Take `O=[N+]([O-])c1ccccc1S(=O)c1ccccc1` (centres undefined): the TGI with DMS 273 small cell lung, in the assay on M19-MEL melanoma, in the assay with LXFL 529 NSCLC, with SNB-78 CNS, in the assay with XF 498 CNS and in the assay on DLD-1 colon was above 100 µM in each case.
In the case of `COc1cc2c(cc1OC)C13CCN4CC5=CCOC(CC(=O)O)C(C5CC41)C3N2` (centres undefined), the TGI with MDA-N is above 100 µM.
On the same count and under the same terms, under `CC1OCC2OC(C)OC(C3C4=C(CC(C)(C)CC4=O)OC4=C3C(=O)CC(C)(C)C4)C2O1` (centres undefined) stands above 100 µM.

(Values after PubChem BioAssay (NCI).)
